Where no end group is shown, it is not given here.
How the values were obtained:
[1] = system: murine monoclonal antibodies; assay: ELISA: binding of solid-phase CD4 peptide to murine monoclonal antibodies; design: species or system mouse; details: compared with p21-38 and p21-49 or with background
Protocol: The plate was maintained for six hours at 37 degrees (37° C.) on a rotating platform to allow the peptide to adhere to the wells and form solid supports. After aspirating the excess liquid from the wells, 200 ul of washing solution containing TWEEN 20 (0.5% polyoxyethylenesorbitan monolaurate) in phosphate buffered saline (0.5M sodium chloride, 0.01M sodium phosphate at pH 7.2; PBS) was admixed to each well and immediately removed by aspiration. After aspirating the excess liquid from the wells 200 ul of blocking solution consisting of 1% bovine serum albumin (BSA) in phosphate buffered saline at pH 7.4 was admixed to each well, and the wells maintained at room temperature for one hour. The wells were washed with 200 ul a solution containing 0.5% TWEEN-20 (Polyoxyethylenesorbitan monolaurate) in PBS and the wash solution immediately removed by aspiration.
A first antibody, either a murine monoclonal antibody or a purified human myeloma protein was diluted to approximately 80 ug per ml in binding buffer consisting of 1% BSA and 0.5% TWEEN 20 (polyoxyethylenesorbitan monolaurate) in PBS and then various amounts, depending on the final antibody concentration desired, were admixed to each well and the wells maintained at room temperature for 3 or 4 hours in a humidified atmosphere. The wells were then washed 6 times with washing buffer and the excess liquid removed by aspiration.
50 ul of a horse radish peroxidase (HRP)-conjugated anti-mouse Ig secondary antibody (Cappel, Cochranvile, Pa.) or HRP-conjugated antihuman Ig (Sigma, St. Louis, Mo.) diluted 1:10,000 and 1:1,500, respectively, in binding buffer supplemented with 15% heat inactivated calf serum, was then admixed to each well. The wells were maintained for 1 hour at room temperature and then washed several times with washing buffer. 100 ul of freshly prepared substrate, prepared by adding 4 mg of 0-phenylendiamine and 4 ul of a 30% solution of hydrogen peroxide to 10 ml of a buffer containing 0.1M citric acid and 0.2M dibasic sodium phosphate at pH 5.0. were admixed to each well. The wells were then maintained (incubated) for 30 minutes at room temperature in the dark. The reaction was stopped by adding 25 ul per well of a stop buffer consisting of aqueous 4N H2 SO4. The amount of colored reaction product produced was determined by measuring the absorbance at 492 nanometers (nm).
Each peptide's ability to bind mouse monoclonal antibodies was determined using the ELISA assay described in Example 1B.

[2] = system: binding of peptide p21-49 to immunoglobulin (monoclonal antibodies 62 and OKT4A); assay: ELISA: binding of p21-49 to immunoglobulins in the presence of dextran sulfate; design: species or system murine; details: dextran sulfate 0.01 ug/ml to 50 ug/ml; both monoclonal antibody 62 (anti-thyroglobulin) and OKT4A (anti-CD4)
Protocol: The binding of peptide p21-49 to various immunoglobulins was determined in the presence of varying concentration of dextran sulfate. Briefly, peptide p21-49 was affixed to the wells of microliter plates as described in Example 1B. Dextran sulfate was then admixed to individual wells at a final concentration ranging from 0.01 ug/ml to 50 ug/ml. The first antibody, either a murine monoclonal antibody immunospecific for thyroglobulin or a murine monoclonal antibody immunospecific for CD4 protein was diluted to approximately 4 ug/ml in binding buffer and admixed to each well. The wells were maintained at room temperature for 4 hours in a humidified atmosphere. The wells were then washed 6 times with washing buffer and the excess liquid removed by aspiration. The assay was completed according to Example 1B.

Substance | relative binding of CD4 peptides (FIG. 15) [1] | inhibition of peptide p21-49 binding to immunoglobulin (FIG. 7) [2]
KKSIQFHWKNSNQIKIL [p 21-37, KKSIQ FHWKN SNQIK IL] | comparable binding with that of p21-38 and p21-49 | –
IQFHWKNSNQIKILG [p 24-38, IQ FHWKN SNQIK ILG] | comparable binding with that of p21-38 and p21-49 | –
KSIQFHWKNSNQIKILG [p 22-38, KSIQ FHWKN SNQIK ILG] | comparable binding with that of p21-38 and p21-49 | –
SIQFHWKNSNQIKILG [p 23-38, SIQ FHWKN SNQIK ILG] | comparable binding with that of p21-38 and p21-49 | –
dextran sulfate | – | inhibits the binding

Source: patent publication US5306812A, “Immunoglobulin-binding polypeptides” (The Regents of the University of California, priority 1990, dated 1994)
